Entries after “also recorded” stand apart in the source; their conditions may differ.

The subject of one assay is porcine airway mucus. Nature of the assay: Mucolytic activity on porcine airway mucin (electrophoresis, Coomassie stain). Format: biochemical. The following applies: for protein bands at 600 and 200 kDa of airway mucus: NaHCO3-Ringer, 60 minutes at 37° C., hydrochloride. Here is the method:
FIG. 9 presents the effect of compound 646 on porcine airway mucus. Mucus collected from porcine upper airways diluted in NaHCO3-Ringer, was treated with different concentrations of compound 646 (0, 0.25. 0.5 and 1 mM), for 60 minutes at 37° C. In lane 1, representative protein pattern after electrophoresis protein separation of untreated porcine airway mucus (40 μg/well).
Airway mucus supernatant diluted in NaHCO3-Ringer was treated with or without cysteamine bitartrate under basic and acidic conditions at 37° C. for 60 minutes.
Biological specimens: Isolated native porcine airways were used as experimental model. Sections of open trachea tissue (approx. 2 cm^2) were carefully rinsed and cover small volume of NaHCO3-Ringer solution. Mucus secretion was stimulated with Prostaglandin E2 (PGE2, 10−6 M). Secreted mucus over the dissected open airways was carefully collected, aliquoted and immediately frozen at −80° C.
Mucolytic activity on porcine airway mucin: One hundred microliters of collected porcine airway supernatant was incubated with Cysteamine bitartrate or compound 646 at final concentrations from 0 to 2 mM as indicated in the text. Mucolytic activity was ended with 30 microliters of SDS-sample buffer solution. 45 microliters of each sample/well were separated in an electrophoresis gel 4-12% Tris-Glycine. After electrophoresis gels were stained with Coomassie Blue solution.
Mucolytic activity of synthetic compound 646. Respiratory airway mucus contained Muc5aC and Muc5B mucins. In order to determine whether compound 646 be used as a mucolytic agent for respiratory airways, supernatant of mucus collected from porcine airways was treated with compound 646 at different concentration (0-1 mM) for 1 h at 37° C.
Mucolytic activity of cysteamine bitartrate under basic and acidic conditions. To validate whether mucolytic activity of cysteamine bitartrate depends on changes of pH, airway mucus supernatant was incubated for 1 h at 37° C. with or without 2 mM cysteamine bitartrate diluted in NaHCO3. An additional airway mucus sample was treated with cysteamine bitartrate and supplemented with 4 μL of 0.1 N of acetic solution pH 4.5. […] The reduction, however, was approximately half of the decrease seen under acidic conditions.

For another assay, the system named is porcine airway. Nature of the assay: Ex vivo porcine airway models (summary statement). From the text:
Abnormal mucus accumulation in airways has deleterious, and fatal consequence in patients suffering from respiratory obstructive diseases, such as cystic fibrosis (CF), COPD and asthma. Therefore, there is a need for therapies aimed at decreasing mucus accumulation to facilitate airway mucus clearance.

For assay [1], the system named is porcine gastric mucin extract (50 kDa band matched to Muc5ac mucin). Briefly: Mucolytic activity on gastric mucin (electrophoresis, Coomassie stain). To be noted: for 50 kDa protein band of gastric mucin extract: 37° C., 60 minutes, versus untreated extract, hydrochloride. The assay is classed as biochemical. Here is the method: FIG. 7 presents the effects of cysteamine bitartrate and compound 646 on porcine gastric mucin extract. One hundred microliters of gastric mucin extract (5 mg/mL) was incubated with and without cysteamine bitartrate and compound 646 separately, at 37° C. for 60 minutes.
Gastric Mucin extract solution: Mucin was prepared as stock solution of 5 mg/mL in water, in NaCl Ringer (150 mM Na^+, 4.6 mM K^+, 1 mM Ca^2+, 1 mM Mg^2+, 150 mM Cl^−, 2.5 mM PO4^x− and 10 mM glucose) pH 7.2, and in HCO3-Ringer solution (150 mM Na^+, 4.6 mM K^+, 1 mM Ca^2+, 1 mM Mg^2+, […] HCO3^−, 2.5 mM PO4^x− and 10 mM glucose) pH 8.
Mucolytic activity on gastric mucin. One hundred microliters of mucin solution were incubated with Cysteamine bitartrate or compound 646 at final concentrations from 0 to 2 mM as indicated in the text. Mixture was incubated at 37° C. for 0-1 hr. Mucolytic activity was ended with 30 microliters of SDS-sample buffer solution. Forty-five microliters of each sample/well were separated in an electrophoresis gel 4-12% Tris-Glycine. After electrophoresis gels were stained with Coomassie Blue solution.
In vitro mucolytic activity of cysteamine bitartrate and compound 646. To evaluate the mucolytic activity of cysteamine bitartrate and 2-aminoethane-1-d-1-thiol hydrochloride (Compound 646), gastric mucin extract was used as a substrate that was treated with 200 and 400 μM of cysteamine bitartrate or Compound 646 respectively.
Mass spectrometry analysis of the isolated 50 kDa protein band. Muc5ac and Muc6 mucins are two major secretory mucins found in the stomach. In order identify which of these mucins were part of the 50 kDa band, mass spectrometry was utilized. Mass spectrometry analysis of the 50 kDa protein band identified 17 unique peptides that matched with porcine Muc5ac mucin.

For “2-aminoethane-1-d-1-thiol hydrochloride [Compound 646]”, the “protein bands at 600 and 200 kDa of airway mucus” value in the assay on porcine airway mucus (0.5 mM) is “two major changes in the proteins at the level of 600 and 200 kDa; also recorded: major changes on two protein bands”; in the assay with porcine airway mucus (1 mM) it was “two major changes in the proteins at the level of 600 and 200 kDa; also recorded: major changes on two protein bands”. The “mucolytic effect on airway mucus” value in the assay with porcine airway mucus (mucus collected from porcine airways, summary of FIG. 9) is on record as “mucolytic effect, similar to cysteamine”. Further, in the assay with porcine airway, the “accumulation of viscous mucus and mucociliary clearance” value was “prevented accumulation of viscous mucus and improves mucociliary clearance”. Moreover, the “50 kDa protein band of gastric mucin extract” value in assay [1] (200 μM) and in assay [1] (400 μM) was “decrease in the 50 kDa protein band” throughout. For the same substance, the “anti-mucin effect against gastric mucin, Muc5ac in particular” value in assay [1] (summary of FIG. 7 and FIG. 8) is reported as “anti-mucin effect against gastric mucin”.

These data come from patent publication US12576051B2, “Methods and composition for treating respiratory obstructive diseases” (The Regents of the University of California, priority 2019, dated 2026).
